Key:
Assay type in all cases: cell-based, hepatitis B virus
HBV [1] = assay: Extracellular HBV DNA secreted by HBV baculovirus infected HepG2 cells (Southern blot, densitometry)
Description: (T). […] Relaxed circular (RC) and double-stranded (DS) forms of HBV DNA are indicated. […] (T). […] Replicative intermediates were analyzed by Southern blotting. Double-stranded (DS) and single-stranded (SS) forms of HBV genomic DNA are indicated.
One limitation of using stable cell lines, such as HepG2 2.2.15 cells, for evaluating the efficacy of an antiviral on HBV replication is that the magnitude of virus replication is at a static level predetermined by the number of integrated HBV genome copies. […] Cultures were fed fresh 3TC supplemented medium daily. After 3 days of treatment (4 days p.i.). DNA was extracted from the medium of treated and untreated control cultures and analyzed by Southern Blotting. Autoradiograms shown indicate different elngths of time of exposure of the blot to film: 1 hour (A), 2 hours (B), 4 hours (C), and 8 hours (D). Relaxed circular (RC) and double-stranded (DS) forms of HBV DNA are indicated. The largest reduction of extracellular HBV DNA (>99% reduction after six days of treatment) occurred in cells infected with 25 pfu of baculovirus, the lowest multiplicity tested. […] However, it is also important to note that even a 96% reduction in HBV replication still allowed high levels of HBV virions to be secreted from 3TC-treated cells which were replicating very high levels of HBV (i.e. cells infected with HBV baculovirus at a high moi).
(§1) HepG2 cells were seeded at approximately 20% to 40% confluency and then were grown for 16 to 24 hours before infection. On the day of infection, duplicate plates of cells were trypsinized, and viable cell number was determined with a hemocytometer using Trypan blue exclusion. Average cell counts were calculated and used to determine the volume of high-titer viral stock necessary to infect cells at the indicated moi. Baculovirus was diluted into MEM-FBS to achieve the appropriate moi using volumes of 1.0 and 0.25 mL to infect 100-mm and 35-mm dishes, respectively. Baculovirus was adsorbed to HepG2 cells for one hour at 37° C. with gentle rocking every 15 minutes to ensure that the inoculum was evenly distributed. The inoculum was then aspirated and HepG2 cells were washed two times with phosphate-buffered saline and refed MEM-FBS.
Conditioned medium was collected from HepG2 cells and subjected to centrifugation at 6,000 g for 5 minutes to I5- remove cellular debris. HBV particles were precipitated with 10% PEG 8000 and were concentrated by centrifugation at 12,000×g. Viral pellets were resuspended in 1 mL of MEM-FBS and divided into two aliquots. One set of aliquots was treated with 750 μg/mL Pronase for one hour and then with 500 mg/mL DNase 1 for one hour. Both sets of aliquots were then digested with Proteinase K, and extracted with phenol and chloroform. DNA was precipitated with 0.1 volume of 3 mol/L sodium acetate and 1 volume of isopropanol. Ten micrograms of transfer RNA was added as a carrier during precipitation. Pellets were resuspended in 25 μL of TE and digested with 0.5 mg/mL RNase for 1 hour. DNA was then analyzed by electrophoresis and Southern blotting.
(§2) 3TC was a gift of BioChem Therapeutic Inc. (Laval, Quebec, Canada). […] Medium containing 3TC was prepared daily as needed using fresh aliquots of 3TC.

HBV [2] = assay: Non protein-associated RC and CCC HBV DNA in HBV baculovirus infected HepG2 cells (Southern blot); conditions: for non protein-associated RC HBV DNA, % Untreated Control: 50 pfu/cell
Description: On the indicated days (3, 6, and 9 days of drug treatment) HBV replication in HepG2 cultures was assessed by examining extracellular HBV DNA and intracellular replicative intermediates.
(T). […] Relaxed circular (RC) and covalently closed circular (CCC) HBV DNA is indicated. […] A conclusion from these studies is that the HBV baculovirus-HepG2 system can be used to complement other in vitro model systems currently used for testing antiviral compounds.
as §1
Nonprotein-bound circular HBV genomes were extracted from HepG2 cells after infection by a high salt extraction of low molecular weight DNA followed by a phenol and chloroform extraction. Nucleic acids were resuspended in 50 μL of water and normalized by OD260. All samples were treated with 100 μg/mL RNase and 30 U of Plasmid-Safe ATP-Dependent DNase (Epicenter Technologies, Madison, Wis.). After a two-hour incubation at 37° C., Plasmid-Safe DNase was heat inactivated at 65° C. according to the manufacturer's instructions. Each sample was separated into two aliquots and one aliquot was digested with Xhol for one hour at 37° C. Samples were analyzed by electrophoresis and Southern blotting.
as §2

HBV [3] = assay: Extracellular HBV DNA secreted by HBV baculovirus infected HepG2 cells (Southern blot, densitometry); conditions: 0.2 μM 3TC, 10 day treatment

Structure (SMILES): Nc1ccn([C@@H]2CS[C@H](CO)O2)c(=O)n1 [3TC, (−)-2′-dideoxy-3′-thiacytidine]
- extracellular HBV DNA, % Untreated Control (HBV [1]; 0.02 μM 3TC, P (from 16 h prior to infection), day 4 p.i. (3 days treatment), 50 pfu/cell): 69.8 % Untreated Control
- extracellular HBV DNA, % Untreated Control (HBV [1]; 0.02 μM 3TC, P (from 16 h prior to infection), day 7 p.i. (6 days treatment), 50 pfu/cell): 60.6 % Untreated Control
- extracellular HBV DNA, % Untreated Control (HBV [1]; 0.02 μM 3TC, P (from 16 h prior to infection), day 10 p.i. (9 days treatment), 50 pfu/cell): 38.1 % Untreated Control
- extracellular HBV DNA, % Untreated Control (HBV [1]; 0.02 μM 3TC, T (from 24 h p.i.), day 4 p.i. (3 days treatment), 50 pfu/cell): 68.1 % Untreated Control
- extracellular HBV DNA, % Untreated Control (HBV [1]; 0.02 μM 3TC, T (from 24 h p.i.), day 7 p.i. (6 days treatment), 50 pfu/cell): 39.6 % Untreated Control
- extracellular HBV DNA, % Untreated Control (HBV [1]; 0.02 μM 3TC, T (from 24 h p.i.), day 10 p.i. (9 days treatment), 50 pfu/cell): 33.0 % Untreated Control
- reduction of extracellular HBV DNA (HBV [1]; 0.02 μM 3TC, nine day treatment, moi 50 pfu/cell): 67%
- reduction of HBV DNA in the medium (HBV [1]; 0.02 μM 3TC, three days of treatment, moi 50 pfu/cell): about 30%
- extracellular HBV DNA, % Untreated Control (HBV [1]; 0.2 μM 3TC from 24 h p.i., moi 25, day 4 p.i. (3 days treatment)): 4.8 % Untreated Control
- extracellular HBV DNA, % Untreated Control (HBV [1]; 0.2 μM 3TC from 24 h p.i., moi 25, day 7 p.i. (6 days treatment)): 0.5 % Untreated Control
- extracellular HBV DNA, % Untreated Control (HBV [1]; 0.2 μM 3TC from 24 h p.i., moi 50, day 4 p.i. (3 days treatment)): 13.9 % Untreated Control
- extracellular HBV DNA, % Untreated Control (HBV [1]; 0.2 μM 3TC from 24 h p.i., moi 50, day 7 p.i. (6 days treatment)): 3.5 % Untreated Control
- extracellular HBV DNA, % Untreated Control (HBV [1]; 0.2 μM 3TC from 24 h p.i., moi 100, day 4 p.i. (3 days treatment)): 27.2 % Untreated Control
- extracellular HBV DNA, % Untreated Control (HBV [1]; 0.2 μM 3TC from 24 h p.i., moi 100, day 7 p.i. (6 days treatment)): 3.4 % Untreated Control
- extracellular HBV DNA, % Untreated Control (HBV [1]; 0.2 μM 3TC from 24 h p.i., moi 200, day 4 p.i. (3 days treatment)): 20.7 % Untreated Control
- extracellular HBV DNA, % Untreated Control (HBV [1]; 0.2 μM 3TC from 24 h p.i., moi 200, day 7 p.i. (6 days treatment)): 2.2 % Untreated Control
- extracellular HBV DNA, % Untreated Control (HBV [1]; 0.2 μM 3TC from 24 h p.i., moi 400, day 4 p.i. (3 days treatment)): 18.7 % Untreated Control
- extracellular HBV DNA, % Untreated Control (HBV [1]; 0.2 μM 3TC from 24 h p.i., moi 400, day 7 p.i. (6 days treatment)): 4.7 % Untreated Control
- extracellular HBV DNA, % Untreated Control (HBV [1]; 0.2 μM 3TC, P (from 16 h prior to infection), day 4 p.i. (3 days treatment), 50 pfu/cell): 10.1 % Untreated Control
- extracellular HBV DNA, % Untreated Control (HBV [1]; 0.2 μM 3TC, P (from 16 h prior to infection), day 7 p.i. (6 days treatment), 50 pfu/cell): 2.4 % Untreated Control
- extracellular HBV DNA, % Untreated Control (HBV [1]; 0.2 μM 3TC, P (from 16 h prior to infection), day 10 p.i. (9 days treatment), 50 pfu/cell): 0.8 % Untreated Control
- extracellular HBV DNA, % Untreated Control (HBV [1]; 0.2 μM 3TC, T (from 24 h p.i.), day 4 p.i. (3 days treatment), 50 pfu/cell): 13.4 % Untreated Control
- extracellular HBV DNA, % Untreated Control (HBV [1]; 0.2 μM 3TC, T (from 24 h p.i.), day 7 p.i. (6 days treatment), 50 pfu/cell): 5.6 % Untreated Control
- extracellular HBV DNA, % Untreated Control (HBV [1]; 0.2 μM 3TC, T (from 24 h p.i.), day 10 p.i. (9 days treatment), 50 pfu/cell): 1.9 % Untreated Control
- reduction of extracellular HBV DNA (HBV [1]; 0.2 μM 3TC, six days of treatment, 25 pfu of baculovirus): > 99%
- average reduction of extracellular HBV DNA (HBV [1]; 0.2 μM 3TC, six days of treatment, multiplicities 50 to 400 pfu/cell): greater than 96%
- extracellular HBV DNA, % Untreated Control (HBV [1]; 2.0 μM 3TC, P (from 16 h prior to infection), day 4 p.i. (3 days treatment), 50 pfu/cell): 1.3 % Untreated Control
- extracellular HBV DNA, % Untreated Control (HBV [1]; 2.0 μM 3TC, P (from 16 h prior to infection), day 7 p.i. (6 days treatment), 50 pfu/cell): 1.2 % Untreated Control
- extracellular HBV DNA, % Untreated Control (HBV [1]; 2.0 μM 3TC, P (from 16 h prior to infection), day 10 p.i. (9 days treatment), 50 pfu/cell): 0.8 % Untreated Control
- extracellular HBV DNA, % Untreated Control (HBV [1]; 2.0 μM 3TC, T (from 24 h p.i.), day 4 p.i. (3 days treatment), 50 pfu/cell): 2.4 % Untreated Control
- extracellular HBV DNA, % Untreated Control (HBV [1]; 2.0 μM 3TC, T (from 24 h p.i.), day 7 p.i. (6 days treatment), 50 pfu/cell): 2.4 % Untreated Control
- extracellular HBV DNA, % Untreated Control (HBV [1]; 2.0 μM 3TC, T (from 24 h p.i.), day 10 p.i. (9 days treatment), 50 pfu/cell): 0.8 % Untreated Control
- reduction of extracellular HBV DNA (HBV [1]; 2.0 μM 3TC, nine days of treatment, moi 50 pfu/cell): more than 99%
- non protein-associated RC HBV DNA, % Untreated Control (HBV [2]; 0.02 μM 3TC, P (from 16 h prior to infection), day 4 p.i. (3 days treatment)): 60.9 % Untreated Control
- non protein-associated RC HBV DNA, % Untreated Control (HBV [2]; 0.02 μM 3TC, P (from 16 h prior to infection), day 7 p.i. (6 days treatment)): 45.2 % Untreated Control
- non protein-associated RC HBV DNA, % Untreated Control (HBV [2]; 0.02 μM 3TC, T (from 24 h p.i.), day 4 p.i. (3 days treatment)): 48.8 % Untreated Control
- non protein-associated RC HBV DNA, % Untreated Control (HBV [2]; 0.02 μM 3TC, T (from 24 h p.i.), day 7 p.i. (6 days treatment)): 40.2 % Untreated Control
- non protein-associated RC HBV DNA, % Untreated Control (HBV [2]; 0.2 μM 3TC, P (from 16 h prior to infection), day 4 p.i. (3 days treatment)): 8.6 % Untreated Control
- non protein-associated RC HBV DNA, % Untreated Control (HBV [2]; 0.2 μM 3TC, P (from 16 h prior to infection), day 7 p.i. (6 days treatment)): 10.5 % Untreated Control
- non protein-associated RC HBV DNA, % Untreated Control (HBV [2]; 0.2 μM 3TC, T (from 24 h p.i.), day 4 p.i. (3 days treatment)): 17.3 % Untreated Control
- non protein-associated RC HBV DNA, % Untreated Control (HBV [2]; 0.2 μM 3TC, T (from 24 h p.i.), day 7 p.i. (6 days treatment)): 10.9 % Untreated Control
- non protein-associated RC HBV DNA, % Untreated Control (HBV [2]; 2.0 μM 3TC, P (from 16 h prior to infection), day 4 p.i. (3 days treatment)): 3.2 % Untreated Control
- non protein-associated RC HBV DNA, % Untreated Control (HBV [2]; 2.0 μM 3TC, P (from 16 h prior to infection), day 7 p.i. (6 days treatment)): 5.6 % Untreated Control
- non protein-associated RC HBV DNA, % Untreated Control (HBV [2]; 2.0 μM 3TC, T (from 24 h p.i.), day 4 p.i. (3 days treatment)): 6.8 % Untreated Control
- non protein-associated RC HBV DNA, % Untreated Control (HBV [2]; 2.0 μM 3TC, T (from 24 h p.i.), day 7 p.i. (6 days treatment)): 6.7 % Untreated Control
- inhibition at 2 µM (HBV [2]; Hepatitis B virus, HepG2, read-out: inhibition of non protein-associated RC HBV DNA production): > 90%
- reduction in extracellular DNA (HBV [3]): ~98%

Reference: patent US6610471B1, “Methods and compositions to investigate infection by hepatitis B virus and agents to prevent and treat the infection” (priority 1998, dated 2003)
